The values that follow are results of earlier work, collected in publication PMC6838683, “Discovery of Human Signaling Systems: Pairing Peptides to G Protein-Coupled Receptors” (Cell, 2019).

Where two headings read alike, the source gives them in different places. No end group written: not given here.

For this data set, the system named is human GPCRs. Further details: method as in Guide to Pharmacology database. The settings on record: max reported value, ref Guide to Pharmacology database, cited from earlier work. The text has this: Supplement mmc1.xlsx, sheet "HumanGPCRLigands" | column: pKi_value; pKd_value; pEC50_value; pIC50_value
Where [1] appears, read: receptor RXFP1 (rxfp1_human, Q9HBX9).
The mark [2] stands for this setting: receptor RXFP2 (rxfp2_human, Q8WXD0).
[3] abbreviates: receptor RXFP3 (rl3r1_human, Q9NSD7).
Where [4] appears, read: receptor RXFP4 (rl3r2_human, Q8TDU9).
Setting [5] is: receptor crfr2_human (CRHR2, Q13324).
[6] abbreviates: receptor UTS2R (ur2r_human, Q9UKP6).
Where [7] appears, read: receptor OPRK1 (oprk_human, P41145).
The mark [8] stands for this setting: receptor CCR1 (ccr1_human, P32246).
[9] abbreviates: receptor CCR3 (ccr3_human, P51677).
Where [10] appears, read: receptor CCR4 (ccr4_human, P51679).
[11] abbreviates: receptor CCR5 (ccr5_human, P51681).

On to relaxin, for which the pEC50_value is 10.4 under setting [1], 9.1 under setting [2] and 8.4 under setting [3]. Further, the pKi_value is reported as 10.2 under setting [1] and 8.5 under setting [2]. Moreover, the pKd_value under setting [3] is reported as 10.

As to relaxin-3, the pKi_value by setting is: under setting [1], 8; under setting [2], 7; under setting [3], 8.9; under setting [4], 9. The pEC50_value is listed as 9.9 under setting [3] and 9 under setting [4]. Besides, the pIC50_value under setting [3] was 9.6 and the pIC50_value under setting [4] is 9.

In the case of secretin, the pEC50_value (receptor sctr_human (SCTR, P47872)) is recorded as 9.7.

With “urocortin 1 (DNPSLSIDLTFHLLRTLLELARTQSQRERAEQNRIIFDSV; ends and bridges not checked; UniProt P55089 83-122, looked up)”, the pKd_value (receptor crfr1_human (CRHR1, P34998)) is recorded as 9.5 and the pKd_value under setting [5] is listed as 9.6.

“urocortin 2 (IVLSLDVPIGLLQILLEQARARAAREQATTNARILARVGHC; ends and bridges not checked; UniProt Q96RP3 72-112, looked up)”: under setting [5], the pKd_value is given as 8.6.

In the case of “urocortin 3 (FTLSLDVPTNIMNLLFNIAKAKNLRAQAAANAHLMAQI; not fully specified; ends and bridges not checked; UniProt Q969E3 120-157, looked up)”, the pKd_value under setting [5] was 8.

urotensin II-related peptide: under setting [6], the pIC50_value is 8.6 and the pKd_value is reported as 9.6.

For “α-neoendorphin (YGGFLRKYPK; Alpha-neoendorphin; UniProt P01213 175-184, looked up)”, the pKi_value under setting [7] is 10.2.

As for β-CGRP, for the setting “receptor calcr_human (CALCR), Calcitonin receptors, Class B1 (Secretin)”, the pEC50_value was 7.2.

Take β-endorphin: the pKi_value is given as 8.3 (receptor OPRD1 (oprd_human, P41143)) and 7.9 under setting [7].

For the molecule β-neoendorphin (YGGFLRKYP), the pKi_value under setting [7] is recorded as 7.9.

As to γ-MSH, the pKd_value (receptor mc3r_human (MC3R, P41968)) was 8.5.

B1: CCL15 (protein, UniProt Q16663 22-113, looked up)
C-C motif chemokine 15: QFTNDAETELMMSKLPLENPVVLNSFHFAADCCTSYISQSIPCSLMKSYFETSSECSKPGVIFLTKKGRQVCAKPSGPGVQDCMKKLKPYSI
Regarding B1, the pIC50_value is 7.9 under setting [8] and 8.6 under setting [9].

B2: CXCL7 (protein, UniProt P02775 59-128, looked up)
Neutrophil-activating peptide …: AELRCMCIKTTSGIHPKNIQSLEVIGKGTHCNQVEVIATLKDGRKICLDPDAPRIKKIVQKKLAGDESAD
modifications: Neutrophil-activating peptide 2
B2: the pIC50_value (receptor CXCR2 (cxcr2_human, P25025)) is on record as 9.3.

B3: CCL1 (protein, UniProt P22362 24-96, looked up)
C-C motif chemokine 1: KSMQVPFSRCCFSFAEQEIPLRAILCYRNTSSICSNEGLIFKLKRGKEACALDTVGWVQRHRKMLRHCPSKRK
Take B3: where the note is “receptor CCR8 (ccr8_human, P51685)”, the pIC50_value is 9.8.

B4: CCL17 (protein, UniProt Q92583 24-94, looked up)
C-C motif chemokine 17: ARGTNVGRECCLEYFKGAIPLRKLKTWYQTSEDCSRDAIVFVTVQGRAICSDPNNKRVKNAVKYLQSLERS
Take B4: the pIC50_value under setting [10] is on record as 8.7.

B5: INSL3 (protein, UniProt P51460 21-55; P51460 106-131, looked up)
Insulin-like 3 B chain: LGPAPTPEMREKLCGHHFVRALVRVCGGPRWSTEA
Insulin-like 3 A chain: AAATNPARYCCLSGCTQQDLLTLCPY
Consider B5, for which, under setting [2], the pKd_value was 10.4 and the pKi_value is given as 9.7.

B6: CCL8 (protein, UniProt P80075 24-99, looked up)
C-C motif chemokine 8: QPDSVSIPITCCFNVINRKIPIQRLESYTRITNIQCPKEAVIFKTKRGKEVCADPKERWVRDSMKHLDQIFQNLKP
For the molecule B6, the pIC50_value (receptor CCR2 (ccr2_human, P41597)) was 8.6. Moreover, under setting [11], the pKi_value is recorded as 9.3.

B7: CCL14 (protein, UniProt Q16627 20-93, looked up)
C-C motif chemokine 14: TKTESSSRGPYHPSECCFTYTTYKIPRQRIMDYYETNSQCSKPGIVFITKRGHSVCTNPSDKWVQDYIKDMKEN
With B7, the pKi_value under setting [8] was 7.4 and the pKi_value under setting [11] was 7.2.

B8: CXCL16 (protein, UniProt Q9H2A7 30-254, looked up)
C-X-C motif chemokine 16: NEGSVTGSCYCGKRISSDSPPSVQFMNRLRKHLRAYHRCLYYTRFQLLSWSVCGGNKDPWVQELMSCLDLKECGHAYSGIVAHQKHLLPTSPPISQASEGASSDIHTPAQMLLSTLQSTQRPTLPVGSLSSDKELTRPNETTIHTAGHSLAAGPEAGENQKQPEKNAGPTARTSATVPVLCLLAIIFILTAALSYVLCKRRRGQSPQSSPDLPVHYIPVAPDSNT
Take B8: the pKd_value (receptor CXCR6 (cxcr6_human, O00574)) is listed as 9.

B9: CCL24 (protein, UniProt O00175 27-119, looked up)
C-C motif chemokine 24: VVIPSPCCMFFVSKRIPENRVVSYQLSSRSTCLKAGVIFTTKKGQQFCGDPKQEWVQRYMKNLDAKQKKASPRARAVAVKGPVQRYPGNQTTC
Take B9: under setting [9], the pIC50_value is on record as 9.4.

B10: CCL21 (protein, UniProt O00585 24-134, looked up)
C-C motif chemokine 21: SDGGAQDCCLKYSQRKIPAKVVRSYRKQEPSLGCSIPAILFLPRKRSQAELCADPKELWVQQLMQHLDKTPSPQKPAQGCRKDRGASKTGKKGKGSKGCKRTERSQTPKGP
For B10, the pIC50_value (receptor CCR7 (ccr7_human, P32248)) is given as 9.3.

B11: CCL22 (protein, UniProt O00626 25-93, looked up)
C-C motif chemokine 22: GPYGANMEDSVCCRDYVRYRLPLRVVKHFYWTSDSCPRPGVVLLTFRDKEICADPRVPWVKMILNKLSQ
On to B11, for which the pIC50_value under setting [10] is recorded as 9.2.

B12: large neuromedin N (protein, UniProt P30990 24-148, looked up)
Large neuromedin N: SDSEEEMKALEADFLTNMHTSKISKAHVPSWKMTLLNVCSLVNNLNSPAEETGEVHEEELVARRKLPTALDGFSLEAMLTIYQLHKICHSRAFQHWELIQEDILDTGNDKNGKEEVIKRKIPYIL
modifications: Large neuromedin N
As to B12, the pIC50_value (receptor NTSR1 (ntr1_human, P30989)) is reported as 7.4.

B13: CCL4 (protein, UniProt P13236 24-92, looked up)
C-C motif chemokine 4: APMGSDPPTACCFSYTARKLPRNFVVDYYETSSLCSQPAVVFQTKRSKQVCADPSESWVQEYVYDLELN
B13: the pKi_value is given as 7.8 under setting [8] and 9.6 under setting [11].

B14: CCL23 (protein, UniProt P55773 22-120, looked up)
C-C motif chemokine 23: RVTKDAETEFMMSKLPLENPVLLDRFHATSADCCISYTPRSIPCSLLESYFETNSECSKPGVIFLTKKGRRFCANPSDKQVQVCMRMLKLDTRIKTRKN
As for B14, the pKi_value under setting [8] was 8.9.

B15: annexin I (protein, UniProt P04083 2-346, looked up)
Annexin A1: AMVSEFLKQAWFIENEEQEYVQTVKSSKGGPGSAVSPYPTFNPSSDVAALHKAIMVKGVDEATIIDILTKRNNAQRQQIKAAYLQETGKPLDETLKKALTGHLEEVVLALLKTPAQFDADELRAAMKGLGTDEDTLIEILASRTNKEIRDINRVYREELKRDLAKDITSDTSGDFRNALLSLAKGDRSEDFGVNEDLADSDARALYEAGERRKGTDVNVFNTILTTRSYPQLRRVFQKYTKYSKHDMNKVLDLELKGDIEKCLTAIVKCATSKPAFFAEKLHQAMKGVGTRHKALIRIMVSRSEIDMNDIKAFYQKMYGISLCQAILDETKGDYEKILVALCGGN
As to B15, under “receptor fpr2_human (FPR2, P25090)”, the pKd_value was 6.5.
